# From PMC10914731, “Homo-BacPROTAC-induced degradation of ClpC1 as a strategy against drug-resistant mycobacteria” (Nature Communications, 2024)
# Values joined by “and” are separate entries in the source; they are usually repeats but may differ in a detail not shown here. Equal values may be shown once. Read-outs that look alike come from different tables or passages of the source.
# Assays:
# [1] = molecular target: ClpC1 NTD protein (M. tuberculosis) (Mycobacterium tuberculosis, UniProt P9WPC9); test: biochemical; format: binding
# [2] = system: Msm 607; test: microbe, parasite or virus in culture; format: cell-based
# [3] = system: Msm 700084; test: microbe, parasite or virus in culture; format: cell-based
# [4] = system: M. tuberculosis H37Rv (ATCC 27294); test: microbe, parasite or virus in culture; format: cell-based
# [5] = format: in vitro ADME, Human
# [6] = format: in vitro ADME, Rat
# [7] = in vitro; details: human
# Procedure, shortened: (§1)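 Values are bidirectional Caco-2 apparent permeabilities, P(A−B) and P(B−A), given in 10^-6 cm s-1. The efflux ratio divides P(B−A) by P(A−B), and intrinsic permeability averages the two directions.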
# [8] = system: Caco-2 monolayers; test: in vitro
# Procedure, shortened: as §1
# [9] = Hepatocyte stability, mice; format: in vitro ADME; details: clearance in hepatocytes
# Procedure, shortened: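 Cryopreserved mouse hepatocytes (about 1 million cells/mL, pH 7.4, 50% species serum) incubated with 1 µM compound, DMSO <0.05%, at 37 °C for up to 6 h, sampled at 6 time points. Parent remaining measured by HPLC-MS/MS; half-life converted via well-stirred liver model to clearance as % Qh.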
# [10] = molecular target: ClpC1-NTD substrate, M. tuberculosis ClpC1P1P2 (Mycobacterium tuberculosis, UniProt P9WPC9); test: biochemical; format: biochemical
# [11] = molecular target: His6-tagged ClpC1-NTD substrate, M. smegmatis ClpC1P1P2 (UniProt A0R574+P9WPC9); test: biochemical; format: biochemical
# [12] = Microsomal stability, human; format: in vitro ADME; details: Human
# Description: The kinetics of compound degradation in liver microsomes is assessed in an assay with 1 µmol/l of compound and 0.5 mg/ml liver microsomes in a medium of 100 mM Tris-HCl pH 7.5, 6.5 mM MgCl2 and 1 mM NADPH at 37 °C. The reaction is stopped at multiple time points by adding acetonitrile. After centrifugation, the compound concentration is measured in the supernatants by high-performance liquid chromatography (HPLC) tandem mass spectrometry (MS/MS). The results are fitted to a first-order decay and the half-lives are converted to clearance (stated as % of the liver blood flow (%Qh)) using the well-stirred liver model.
# [13] = read-out: DC50, single measurements
# Chain of ClpC1-NTD substrate, M. tuberculosis ClpC1P1P2 (P9WPC5 whole entry): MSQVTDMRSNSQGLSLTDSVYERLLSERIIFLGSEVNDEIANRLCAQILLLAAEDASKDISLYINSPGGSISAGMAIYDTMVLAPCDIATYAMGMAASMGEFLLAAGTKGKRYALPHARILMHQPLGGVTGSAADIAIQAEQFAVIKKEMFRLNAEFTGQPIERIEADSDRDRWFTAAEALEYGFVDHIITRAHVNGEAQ
# Chain of ClpC1-NTD substrate, M. tuberculosis ClpC1P1P2 (P9WPC9 whole entry): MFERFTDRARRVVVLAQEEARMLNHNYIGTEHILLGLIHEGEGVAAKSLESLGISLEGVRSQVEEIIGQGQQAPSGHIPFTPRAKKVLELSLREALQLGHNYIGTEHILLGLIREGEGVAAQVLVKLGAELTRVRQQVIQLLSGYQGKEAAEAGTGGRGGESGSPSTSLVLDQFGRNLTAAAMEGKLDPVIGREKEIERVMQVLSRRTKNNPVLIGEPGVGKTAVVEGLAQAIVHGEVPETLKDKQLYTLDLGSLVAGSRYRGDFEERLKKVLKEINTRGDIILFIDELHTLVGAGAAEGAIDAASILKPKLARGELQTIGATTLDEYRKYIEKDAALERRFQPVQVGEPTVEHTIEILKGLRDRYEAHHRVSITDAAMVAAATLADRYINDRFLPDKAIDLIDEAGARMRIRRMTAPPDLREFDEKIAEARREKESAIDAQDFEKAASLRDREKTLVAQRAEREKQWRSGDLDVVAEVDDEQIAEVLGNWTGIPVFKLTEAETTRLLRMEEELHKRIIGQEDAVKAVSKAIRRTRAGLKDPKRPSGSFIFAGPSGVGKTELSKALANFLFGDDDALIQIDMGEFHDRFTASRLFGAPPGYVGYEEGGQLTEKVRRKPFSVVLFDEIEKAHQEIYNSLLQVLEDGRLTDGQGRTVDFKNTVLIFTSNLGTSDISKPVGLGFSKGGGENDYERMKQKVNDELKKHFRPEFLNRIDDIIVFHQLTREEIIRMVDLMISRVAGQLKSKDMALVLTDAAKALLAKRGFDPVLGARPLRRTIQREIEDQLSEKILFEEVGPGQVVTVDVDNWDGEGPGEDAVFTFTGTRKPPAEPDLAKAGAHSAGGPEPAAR
# Chain of ClpC1-NTD substrate, M. tuberculosis ClpC1P1P2 (P9WPC3 whole entry, further chain): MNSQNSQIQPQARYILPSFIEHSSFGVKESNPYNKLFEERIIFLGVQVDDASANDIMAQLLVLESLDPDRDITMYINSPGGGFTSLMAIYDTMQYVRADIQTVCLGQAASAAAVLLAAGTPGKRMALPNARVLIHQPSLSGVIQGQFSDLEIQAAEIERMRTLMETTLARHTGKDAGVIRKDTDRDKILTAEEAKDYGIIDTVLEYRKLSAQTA
# Chain of ClpC1 NTD protein (M. tuberculosis) (P9WPC9 1-156, looked up, natural form): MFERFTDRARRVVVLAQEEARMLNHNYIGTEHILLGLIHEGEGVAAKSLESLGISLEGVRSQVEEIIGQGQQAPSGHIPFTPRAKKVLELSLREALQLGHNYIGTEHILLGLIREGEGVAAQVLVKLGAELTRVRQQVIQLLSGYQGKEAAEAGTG
# Chain of His6-tagged ClpC1-NTD substrate, M. smegmatis ClpC1P1P2 (P9WPC9 1-156, looked up, natural form): as above
# Chain of His6-tagged ClpC1-NTD substrate, M. smegmatis ClpC1P1P2 (A0R574 whole entry): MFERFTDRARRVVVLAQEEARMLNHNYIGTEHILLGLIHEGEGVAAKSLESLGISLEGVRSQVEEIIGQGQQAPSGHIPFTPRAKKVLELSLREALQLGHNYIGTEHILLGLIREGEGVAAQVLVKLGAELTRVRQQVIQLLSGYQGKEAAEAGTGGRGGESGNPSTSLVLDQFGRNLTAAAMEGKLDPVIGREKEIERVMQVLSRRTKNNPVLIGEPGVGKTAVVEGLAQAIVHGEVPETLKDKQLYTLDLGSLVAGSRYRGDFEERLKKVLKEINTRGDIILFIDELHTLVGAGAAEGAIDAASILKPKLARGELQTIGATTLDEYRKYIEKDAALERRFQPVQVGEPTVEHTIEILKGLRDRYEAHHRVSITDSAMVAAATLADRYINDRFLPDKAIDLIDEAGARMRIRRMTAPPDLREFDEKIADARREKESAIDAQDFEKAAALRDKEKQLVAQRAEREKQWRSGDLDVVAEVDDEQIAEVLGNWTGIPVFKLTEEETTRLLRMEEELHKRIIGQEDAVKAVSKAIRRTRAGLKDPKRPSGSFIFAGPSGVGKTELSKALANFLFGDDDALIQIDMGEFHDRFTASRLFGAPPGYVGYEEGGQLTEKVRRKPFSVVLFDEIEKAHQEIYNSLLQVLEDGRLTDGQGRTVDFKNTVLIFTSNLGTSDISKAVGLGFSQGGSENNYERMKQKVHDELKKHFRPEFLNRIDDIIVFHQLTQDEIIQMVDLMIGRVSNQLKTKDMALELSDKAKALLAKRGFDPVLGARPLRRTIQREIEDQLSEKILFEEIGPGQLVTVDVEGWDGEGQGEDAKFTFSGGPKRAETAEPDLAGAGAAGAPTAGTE
structure (smiles),measurement,setting,value
CO[C@H](c1ccc(OCc2cn(CCCCCn3cc(COc4ccc([C@@H](OC)[C@@H]5NC(=O)[C@H](C)NC(=O)[C@H](C[C@@H](C)CO)N(C)C(=O)[C@H](Cc6cn(C)c7ccccc67)NC(=O)[C@H](C(C)C)NC(=O)[C@H](CC(C)C)N(C)C(=O)[C@H](C(C)C)NC5=O)cc4)nn3)nn2)cc1)[C@@H]1NC(=O)[C@H](C)NC(=O)[C@H](C[C@@H](C)CO)N(C)C(=O)[C@H](Cc2cn(C)c3ccccc23)NC(=O)[C@H](C(C)C)NC(=O)[C@H](CC(C)C)N(C)C(=O)[C@H](C(C)C)NC1=O [SI-40],Kd,"[1]; SPR (Supplementary Table 1), read-out: KD ClpC1-NTD Mean ± SD",0.00066 ± 4e-05 µM
same,koff ClpC1-NTD,"[1]; SPR, single independent measurements",0.0009 s⁻¹
same,Kd,"[1]; SPR, single independent measurements, read-out: KD ClpC1-NTD",0.000686 µM and 0.000636 µM
same,koff,"[1]; SPR, single independent measurements, read-out: koff ClpC1-NTD",0.001 s⁻¹
same,MIC,"[2]; Mycolicibacterium smegmatis, 607, read-out: MIC Msm 607",> 50 µM
same,MIC,"[2]; Mycolicibacterium smegmatis, 607, read-out: Msm 607 MIC, single determinations",> 50 µM
same,MIC,"[3]; Mycolicibacterium smegmatis, 700084, single determinations, read-out: Msm 700084 MIC",> 50 µM
same,MIC,"[3]; Mycolicibacterium smegmatis, 700084, read-out: MIC Msm 700084",> 50 µM
same,MIC,"[4]; Mycobacterium tuberculosis, Mtb H37Rv (Supplementary Table 2), read-out: MIC Mtb",0.2 µM
same,MIC,"[4]; Mycobacterium tuberculosis, single determinations, read-out: Mtb MIC",0.195 µM
same,Hepatocyte Stability Human QH,[5]; Human,25.024%
same,Hepatocyte Stability Rat QH,[6]; Rat,11.911%
same,Hepatocyte Rat,[6]; clearance in hepatocytes,12 %Qh
same,Papp A→B,"[7]; Caco-2, Caco-2 permeability P (A-B), apical to basolateral",< 2.5 ×10⁻⁶ cm/s
same,Papp B→A,"[7]; Caco-2, Caco-2 permeability P (B-A), basolateral to apical",< 0.7 ×10⁻⁶ cm/s
same,Caco-2 Int. Perm,[8]; mean value of P(A−B) and P(B−A),1.60 10-6 cm s-1
same,Hepatocyte Mice,[9],15 %Qh
COC(c1ccc(OCc2cn(CCOCCOCCOCCOCCn3cc(COc4ccc(C(OC)C5NC(=O)C(C)NC(=O)C(CC(C)CO)N(C)C(=O)C(Cc6cn(C)c7ccccc67)NC(=O)C(C(C)C)NC(=O)C(CC(C)C)N(C)C(=O)C(C(C)C)NC5=O)cc4)nn3)nn2)cc1)C1NC(=O)C(C)NC(=O)C(CC(C)CO)N(C)C(=O)C(Cc2cn(C)c3ccccc23)NC(=O)C(C(C)C)NC(=O)C(CC(C)C)N(C)C(=O)C(C(C)C)NC1=O (stereo not shown) [SI-39],koff ClpC1-NTD,[1],1E-3 7E-4 1/s
same,Kd,[1]; read-out: KD ClpC1-NTD,0.000477 µM and 0.000422 µM
same,Kd,[1]; read-out: KD ClpC1-NTD Mean ± SD,0.00045 ± 4e-05 µM
same,Msm 607 MIC,[2]; single determinations,12.500 µM
same,MIC,"[3]; single determinations, read-out: Msm 700084 MIC",12.500 µM
same,MIC,"[4]; Mtb H37Rv (Supplementary Table 2), read-out: MIC Mtb",0.2 µM
same,MIC,"[4]; single determinations, read-out: Mtb MIC",0.195 µM
same,"1-Dmax, Mean",[10],73%
same,"1-Dmax, single measurements",[10],79.7% and 65.9% and 73.8%
same,DC50,"[10]; read-out: DC50, Mean",7.7 µM
same,DC50,[10]; [13],8.5 µM and 5.9 µM and 8.7 µM
same,Hepatocyte Human,[5],12 %Qh
same,Hepatocyte Stability Human QH,[5],12.386%
same,Hepatocyte Rat,[6],6 %Qh
same,Hepatocyte Stability Rat QH,[6],6.192%
same,"1-Dmax, Mean",[11],88%
same,"1-Dmax, single measurements",[11],79.0% and 91.3% and 94.4%
same,DC50,"[11]; read-out: DC50, Mean",5.8 µM
same,DC50,[11]; [13],6.5 µM and 5.3 µM and 5.6 µM
same,CACO permeability PEAB,[8]; Caco-2,<0.000 cm/sec
same,CACO permeability PEBA,[8]; Caco-2,<0.000 cm/sec
same,Caco-2 Int. Perm,[8]; Caco-2,2.9 10-6 cm s-1
same,Caco-2 permeability P (A-B),[8]; Caco-2,< 4.1 10-6 cm s-1
same,Caco-2 permeability P (B-A),[8]; Caco-2,< 1.7 10-6 cm s-1
same,Hepatocyte Mice,[9],15 %Qh
same,Microsomal Stability Human QH,[12],39.3%
